The subject of the experiment is MV4-11 cells. The experiment in a line: Cell proliferation assay MV4;11 (CellTiter-Glo, 72 hours). The class given is cell-based. To be noted: Homo sapiens; MV4;11 leukemia cell line, 72 hours; read-out: MV4; 11 IC50. The gist of the method: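 Luminescent CellTiter-Glo readout after 72 h culture, 37 °C, 5% CO2, expressed relative to vehicle-treated wells, with maximal inhibition taken at the highest dose. MLL-rearranged MV4-11 leukemia cells; final compound range 0.632 to 2000 nM in eight steps.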

A value given as a limit tells only on which side of the number the result lay.

In the case of `CCNS(=O)(=O)N[C@@H]1CC[C@@H](CN2CCC3(CC2)CN(c2ncncc2Oc2ccc(F)cc2C(=O)N(C(C)C)C2CC2)C3)OC1` [Example 145, N-Cyclopropyl-2-((4-(7-(((2S,5R)-5-((N-ethylsulfamoyl)amino)tetrahydro-2H-pyran-2-yl)methyl)-2,7-diazaspiro[3.5]nonan-2-yl)pyrimidin-5-yl)oxy)-5-fluoro-N-isopropylbenzamide], the IC50 is below 100 nM.
For `CCNS(=O)(=O)N[C@@H]1CC[C@@H](CN2CCC3(CC2)CN(c2ncncc2Oc2ccc(F)cc2C(=O)N(CC(F)F)C(C)C)C3)OC1` [Example 147, N-(2,2-Difluoroethyl)-2-((4-(7-(((2S,5R)-5-((N-ethylsulfamoyl)amino)tetrahydro-2H-pyran-2-yl)methyl)-2,7-diazaspiro[3.5]nonan-2-yl)pyrimidin-5-yl)oxy)-5-fluoro-N-isopropylbenzamide], the IC50 was below 100 nM.
For `CC(C)N(CC(F)F)C(=O)c1cc(F)ccc1Oc1cncnc1N1CC2(CCN(C[C@@H]3CC[C@@H](NS(=O)(=O)NCC4CC4)CO3)CC2)C1` [Example 148, 2-((4-(7-(((2S,5R)-5-((N-(Cyclopropylmethyl)sulfamoyl)amino)tetrahydro-2H-pyran-2-yl)methyl)-2,7-diazaspiro[3.5]nonan-2-yl)pyrimidin-5-yl)oxy)-N-(2,2-difluoroethyl)-5-fluoro-N-isopropylbenzamide] the value was below 100 nM; for `CC(C)N(CC(F)F)C(=O)c1cc(F)ccc1Oc1cncnc1N1CC2(CCN(C[C@@H]3CC[C@@H](NS(=O)(=O)NC4CC4)CO3)CC2)C1` [Example 149, 2-((4-(7-(((2S,5R)-5-((N-Cyclopropylsulfamoyl)amino)tetrahydro-2H-pyran-2-yl)methyl)-2,7-diazaspiro[3.5]nonan-2-yl)pyrimidin-5-yl)oxy)-N-(2,2-difluoroethyl)-5-fluoro-N-isopropylbenzamide], below 100 nM.
For the molecule `CC(C)NS(=O)(=O)N[C@@H]1CC[C@@H](CN2CCC3(CC2)CN(c2ncncc2Oc2ccc(F)cc2C(=O)N(CC(F)F)C(C)C)C3)OC1` [Example 150, N-(2,2-Difluoroethyl)-5-fluoro-N-isopropyl-2-((4-(7-(((2S,5R)-5-((N-isopropylsulfamoyl)amino)tetrahydro-2H-pyran-2-yl)methyl)-2,7-diazaspiro[3.5]nonan-2-yl)pyrimidin-5-yl)oxy)benzamide], the IC50 was below 100 nM.
In the case of `CCCNS(=O)(=O)N[C@@H]1CC[C@@H](CN2CCC3(CC2)CN(c2ncncc2Oc2ccc(F)cc2C(=O)N(CC(F)F)C(C)C)C3)OC1` [Example 151, N-(2,2-Difluoroethyl)-5-fluoro-N-isopropyl-2-((4-(7-(((2S,5R)-5-((N-propylsulfamoyl)amino)tetrahydro-2H-pyran-2-yl)methyl)-2,7-diazaspiro[3.5]nonan-2-yl)pyrimidin-5-yl)oxy)benzamide], the IC50 was below 100 nM.
For `CCS(=O)(=O)N[C@@H]1CC[C@@H](CN2CCC3(CC2)CN(c2ncncc2Oc2ccc(F)cc2C(=O)N(CC(F)(F)F)C(C)C)C3)OC1` [Example 152, 2-((4-(7-(((2S,5R)-5-(Ethylsulfonamido)tetrahydro-2H-pyran-2-yl)methyl)-2,7-diazaspiro[3.5]nonan-2-yl)pyrimidin-5-yl)oxy)-5-fluoro-N-isopropyl-N-(2,2,2-trifluoroethyl)benzamide] the value was below 100 nM.
With `CCNS(=O)(=O)N[C@@H]1CC[C@@H](CN2CCC3(CC2)CN(c2ncncc2Oc2ccc(F)cc2C(=O)N(CC(F)(F)F)C(C)C)C3)OC1` [Example 153, 2-((4-(7-(((2S,5R)-5-((N-Ethylsulfamoyl)amino)tetrahydro-2H-pyran-2-yl)methyl)-2,7-diazaspiro[3.5]nonan-2-yl)pyrimidin-5-yl)oxy)-5-fluoro-N-isopropyl-N-(2,2,2-trifluoroethyl)benzamide], the IC50 was below 100 nM.
For `CNS(=O)(=O)N[C@@H]1CC[C@@H](CN2CCC3(CC2)CN(c2ncncc2Oc2ccc(F)cc2C(=O)N(C(C)C)C2CC(F)(F)C2)C3)OC1` [Example 154, N-(3,3-Difluorocyclobutyl)-5-fluoro-N-isopropyl-2-((4-(7-(((2S,5R)-5-((N-methylsulfamoyl)amino)tetrahydro-2H-pyran-2-yl)methyl)-2,7-diazaspiro[3.5]nonan-2-yl)pyrimidin-5-yl)oxy)benzamide] the value was below 100 nM; for `CCNS(=O)(=O)N[C@@H]1CC[C@@H](CN2CCC3(CC2)CN(c2ncncc2Oc2ccc(F)cc2C(=O)N(C(C)C)C2CC(F)(F)C2)C3)OC1` [Example 155, N-(3,3-Difluorocyclobutyl)-2-((4-(7-(((2S,5R)-5-((N-ethylsulfamoyl)amino)tetrahydro-2H-pyran-2-yl)methyl)-2,7-diazaspiro[3.5]nonan-2-yl)pyrimidin-5-yl)oxy)-5-fluoro-N-isopropylbenzamide], below 100 nM.
For `C[C@@H]1COC[C@@H](C)N1C(=O)c1cc(F)ccc1Oc1cncnc1N1CC2(CCN(C[C@@H]3CC[C@@H](NS(=O)(=O)NCC(F)(F)F)CO3)CC2)C1` [Example 157, {[(3R,6S)-6-{[2-(5-{2-[(3R,5R)-3,5-Dimethylmorpholine-4-carbonyl]-4-fluorophenoxy}pyrimidin-4-yl)-2,7-diazaspiro[3.5]nonan-7-yl]methyl}oxan-3-yl]sulfamoyl}(2,2,2-trifluoroethyl)amine] the value was below 100 nM; for `C[C@@H]1COC[C@@H](C)N1C(=O)c1cc(F)ccc1Oc1cncnc1N1CC2(CCN(C[C@@H]3CC[C@@H](NS(=O)(=O)NCC4CC4)CO3)CC2)C1` [Example 158, (Cyclopropylmethyl)({[(3R,6S)-6-{[2-(5-{2-[(3R,5R)-3,5-dimethylmorpholine-4-carbonyl]-4-fluorophenoxy}pyrimidin-4-yl)-2,7-diazaspiro[3.5]nonan-7-yl]methyl}oxan-3-yl]sulfamoyl})amine], below 100 nM; for `C[C@@H]1COC[C@@H](C)N1C(=O)c1cc(F)ccc1Oc1cncnc1N1CC2(CCN(C[C@@H]3CC[C@@H](NS(=O)(=O)NC4CC4)CO3)CC2)C1` [Example 159, N-[(3R,6S)-6-{[2-(5-{2-[(3R,5R)-3,5-Dimethylmorpholine-4-carbonyl]-4-fluorophenoxy}pyrimidin-4-yl)-2,7-diazaspiro[3.5]nonan-7-yl]methyl}oxan-3-yl](cyclopropylamino)sulfonamide], below 100 nM.
With `C[C@@H]1COC[C@H](C)N1C(=O)c1cc(F)ccc1Oc1cncnc1N1CC2(CCN(C[C@@H]3CC[C@@H](NS(=O)(=O)N(C)C)CO3)CC2)C1` [Example 160, {[(3R,6S)-6-{[2-(5-{2-[(3R,5S)-3,5-Dimethylmorpholine-4-carbonyl]-4-fluorophenoxy}pyrimidin-4-yl)-2,7-diazaspiro[3.5]nonan-7-yl]methyl}oxan-3-yl]sulfamoyl}dimethylamine] the figure was below 100 nM; with `C[C@@H]1COC[C@H](C)N1C(=O)c1cc(F)ccc1Oc1cncnc1N1CC2(CCN(C[C@@H]3CC[C@@H](NS(=O)(=O)N4CCC4)CO3)CC2)C1` [Example 161, N-((3R,6S)-6-((2-(5-(2-((3R,5S)-3,5-Dimethylmorpholine-4-carbonyl)-4-fluorophenoxy)pyrimidin-4-yl)-2,7-diazaspiro[3.5]nonan-7-yl)methyl)tetrahydro-2H-pyran-3-yl)azetidine-1-sulfonamide], below 100 nM.
`C[C@@H]1COC[C@H](C)N1C(=O)c1cc(F)ccc1Oc1cncnc1N1CC2(CCN(C[C@@H]3CC[C@@H](NS(=O)(=O)NCC(F)(F)F)CO3)CC2)C1` [Example 162, {[(3R,6S)-6-{[2-(5-{2-[(3R,5S)-3,5-Dimethylmorpholine-4-carbonyl]-4-fluorophenoxy}pyrimidin-4-yl)-2,7-diazaspiro[3.5]nonan-7-yl]methyl}oxan-3-yl]sulfamoyl}(2,2,2-trifluoroethyl)amine]: the IC50 is below 100 nM.
With `C[C@@H]1COC[C@H](C)N1C(=O)c1cc(F)ccc1Oc1cncnc1N1CC2(CCN(C[C@@H]3CC[C@@H](NS(=O)(=O)NC4CC4)CO3)CC2)C1` [Example 163, N-[(3R,6S)-6-{[2-(5-{2-[(3R,5S)-3,5-Dimethylmorpholine-4-carbonyl]-4-fluorophenoxy}pyrimidin-4-yl)-2,7-diazaspiro[3.5]nonan-7-yl]methyl}oxan-3-yl](cyclopropylamino)sulfonamide] the figure was below 100 nM; with `CC(C)N(C(=O)c1cc(F)ccc1Oc1cncnc1N1CC2(CCN(C[C@@H]3CC[C@@H](NS(=O)(=O)C4CC4)CO3)CC2)C1)[C@@H]1CCOC1` [Example 164, 2-((4-(7-(((2S,5R)-5-(Cyclopropanesulfonamido)tetrahydro-2H-pyran-2-yl)methyl)-2,7-diazaspiro[3.5]nonan-2-yl)pyrimidin-5-yl)oxy)-5-fluoro-N-isopropyl-N-((R)-tetrahydrofuran-3-yl)benzamide], below 100 nM; with `CCN(CC)S(=O)(=O)N[C@@H]1CC[C@@H](CN2CCC3(CC2)CN(c2ncncc2Oc2ccc(F)cc2C(=O)N(C(C)C)[C@@H]2CCOC2)C3)OC1` [Example 165, 2-((4-(7-(((2S,5R)-5-((N,N-Diethylsulfamoyl)amino)tetrahydro-2H-pyran-2-yl)methyl)-2,7-diazaspiro[3.5]nonan-2-yl)pyrimidin-5-yl)oxy)-5-fluoro-N-isopropyl-N-((R)-tetrahydrofuran-3-yl)benzamide], below 100 nM.
With `CC(C)N(C(=O)c1cc(F)ccc1Oc1cncnc1N1CC2(CCN(C[C@@H]3CC[C@@H](NS(C)(=O)=O)CO3)CC2)C1)[C@@H]1CCOC1` [Example 166, 5-Fluoro-N-isopropyl-2-((4-(7-(((2S,5R)-5-(methylsulfonamido)tetrahydro-2H-pyran-2-yl)methyl)-2,7-diazaspiro[3.5]nonan-2-yl)pyrimidin-5-yl)oxy)-N-((R)-tetrahydrofuran-3-yl)benzamide] the figure was below 100 nM; with `CC(C)N(C(=O)c1cc(F)ccc1Oc1cncnc1N1CC2(CCN(C[C@@H]3CC[C@@H](NS(=O)(=O)N(C)C)CO3)CC2)C1)[C@@H]1CCOC1` [Example 167, 2-((4-(7-(((2S,5R)-5-((N,N-Dimethylsulfamoyl)amino)tetrahydro-2H-pyran-2-yl)methyl)-2,7-diazaspiro[3.5]nonan-2-yl)pyrimidin-5-yl)oxy)-5-fluoro-N-isopropyl-N-((R)-tetrahydrofuran-3-yl)benzamide], below 100 nM.

(Values after US11919901B2 (Syndax Pharmaceuticals, Inc., priority 2021, dated 2024).)
